Experimental data: PubChem BioAssay (NCI)
Where “and” joins values, the source holds several entries; their conditions need not be identical. Equal entries are not always repeated.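 All cell lines were grown in 96-well plates and treated with compound for 48 hours. GI50 = concentration required for 50% inhibition of growth. At the TGI there is no net growth.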

Experiments:
Assay in all cases: NCI anticancer screen, dose series, 48 h
U251 CNS = test system: U251 CNS
IGROV1 ovarian = test system: IGROV1 ovarian
HT29 colon = test system: HT29 colon
RXF 393 renal = test system: RXF 393 renal
HOP-62 NSCLC = test system: HOP-62 NSCLC
MDA-MB-435 = test system: MDA-MB-435
SK-OV-3 ovarian = test system: SK-OV-3 ovarian
EKVX NSCLC = test system: EKVX NSCLC
UO-31 renal = test system: UO-31 renal

Structure (SMILES)	TGI (U251 CNS)	TGI (IGROV1 ovarian)	TGI (HT29 colon)	TGI (RXF 393 renal)	TGI (HOP-62 NSCLC)	TGI (MDA-MB-435)	TGI (SK-OV-3 ovarian)	TGI (EKVX NSCLC)	TGI (UO-31 renal)	GI50 (UO-31 renal)
CC(=O)OCC(=O)O[C@@H]1[C@H]2[C@@H](OC(=O)c3ccccc3)[C@@H](C)C[C@]2(O)[C@H](OC(C)=O)[C@@]2(C)C[C@]1(OC(C)=O)C[C@H]1C(=O)C(C)(C)[C@@H](OC(C)=O)[C@@H]12	> 25 µM	> 25 µM	> 25 µM	> 25 µM	> 25 µM	> 25 µM	> 25 µM	> 25 µM	> 6.83 µM	
CC(C)=CCC12Cc3ccc(O)cc3C(C(C)CN1)C2C (stereo not drawn)	> 100 µM	> 100 µM	> 100 µM	> 100 µM	> 100 µM	> 100 µM	> 100 µM	> 100 µM	> 100 µM	
COC(=O)C1=C(C(=O)OC)SC(=C2SC3=C(SC(=C4SCCS4)S3)S2)S1	> 100 µM	> 100 µM	> 100 µM	> 100 µM	> 100 µM	> 100 µM	> 100 µM	> 100 µM	> 100 µM	
N#Cc1nc(C2CCC(=O)O2)oc1N (stereo not drawn)	> 100 µM	> 100 µM	> 100 µM	> 100 µM	> 100 µM	> 100 µM	> 100 µM	> 100 µM	> 100 µM	
COc1cc2c3cc1Oc1c(OC)c(OC)cc4c1C(Cc1ccc(O)c(c1)Oc1ccc(cc1)CC3N(C)CC2)CN(C)C4 (stereo not drawn)	24.7 µM	48.9 µM	13.7 µM	23.4 µM	37.2 µM	23.7 µM	47.9 µM	43.4 µM	29.8 µM	
O=c1ccn(-c2ccccn2)c(=O)n1-c1ccccn1	> 100 µM	> 100 µM	> 100 µM	> 100 µM	> 100 µM	> 100 µM	> 100 µM	> 100 µM	> 100 µM	
CNC(=S)NNc1ncnc2c1c(-c1ccc(Cl)cc1)cn2-c1ccc(C)cc1	24.1 µM	25 µM	29.8 µM	32.3 µM	39.2 µM	23.6 µM	28.9 µM	28.8 µM	23.4 µM	
Nc1c(S(N)(=O)=O)cc(S(N)(=O)=O)cc1S(N)(=O)=O	> 100 µM	> 100 µM	> 100 µM	> 100 µM	> 100 µM	> 100 µM	> 100 µM	> 100 µM	> 100 µM	
Cn1c2c(c3ccccc31)CCN1C(=O)C34CCCC3CC21S4 (stereo not drawn)	> 100 µM	> 100 µM	> 100 µM	> 100 µM	> 100 µM	> 100 µM	> 100 µM	> 100 µM	> 100 µM	
O=[N+]([O-])/C(Cl)=C(/C(Cl)=C(Cl)Cl)N1CCCCC1	26.8 µM	23.4 µM	29.5 µM	20.6 µM	40.8 µM	20.8 µM	> 100 µM	39.7 µM	25.7 µM	
Cc1cn(CCCCCOC(=O)NC(CCCNC(N)=O)C(=O)O)c(=O)[nH]c1=O (stereo not drawn)	> 100 µM	> 100 µM	> 100 µM	> 100 µM	> 100 µM	> 100 µM	> 100 µM	> 100 µM	> 100 µM	
O=C(OC12CC3CC(CC(C3)C1)C2)c1ccc(NCc2cc(O)ccc2O)cc1	2.69 µM	0.816 µM	9.73 µM	1.02 µM	14.8 µM	4.45 µM	13.2 µM	3.37 µM	2.06 µM	
CCCCCCCCCCCCOCCOCCOCCOCCOCCOCC(=O)NC(Cc1ccccc1)C(=O)Oc1ccc([N+](=O)[O-])cc1 (stereo not drawn)	> 100 µM	> 100 µM	> 100 µM	> 100 µM	> 100 µM	> 100 µM	> 100 µM	> 100 µM	> 100 µM	
O=CN1CCN(C(=O)c2ccco2)C1=S	32.5 µM	25.3 µM	26.2 µM	20.1 µM	36.2 µM	19.7 µM	70.8 µM	41.3 µM	13.8 µM	
C[N+]1(CCN=C=NC2CCCCC2)CCOCC1	> 100 µM	> 100 µM	> 100 µM	> 100 µM	> 100 µM	> 100 µM	> 100 µM	> 100 µM	> 100 µM	
O=C1CC(c2ccccc2Cl)C2(C(=O)NC(=O)NC2=O)C(c2ccccc2Cl)C1 (stereo not drawn)	> 100 µM	95.9 µM	> 100 µM	85.2 µM	> 100 µM	> 100 µM	> 100 µM	> 100 µM	> 100 µM	
COc1ccc(C2Oc3c(OC)cc(CCCO)cc3C2CO)cc1OC (stereo not drawn)	> 100 µM	> 100 µM	> 100 µM	> 100 µM	> 100 µM	> 100 µM	> 100 µM	> 100 µM	> 100 µM	38.9 µM and > 100 µM
Cn1nc2c(c1N)Cc1c(nn(C)c1N)-c1ccccc1-2	> 100 µM	> 100 µM	> 100 µM	> 100 µM	> 100 µM	> 100 µM	> 100 µM	> 100 µM	> 100 µM	
